Data: patent US6716833B2, “Acetylenic α-amino acid-based sulfonamide hydroxamic acid tace inhibitors” (priority 1999, dated 2004)

Tests used:
MMP-9 = MMP-9 (Homo sapiens, UniProt P14780); assay: MMP-9 inhibition (thiopeptide or fluorescent peptide substrate); type: biochemical; conditions: read-out: MMP-9 IC50
[1] = target: TNF-α converting enzyme (TACE) (Homo sapiens, UniProt P78536); assay: TACE inhibition (fluorescent peptidyl substrate); type: biochemical; conditions: read-out: TACE IC50
THP-1 cells = assay: THP-1 soluble protein assay, soluble TNF-α (ELISA); type: cell-based, human; conditions: Homo sapiens, THP-1, 3 μM; THP-1 cells; read-out: THP % Inhibition @ 3 μM
MMP-1 = target: T1, MMP-1 (Homo sapiens, UniProt P03956); assay: MMP-1 inhibition (thiopeptide or fluorescent peptide substrate); type: biochemical; conditions: read-out: MMP-1 IC50
T1 sequence (P03956 100-469): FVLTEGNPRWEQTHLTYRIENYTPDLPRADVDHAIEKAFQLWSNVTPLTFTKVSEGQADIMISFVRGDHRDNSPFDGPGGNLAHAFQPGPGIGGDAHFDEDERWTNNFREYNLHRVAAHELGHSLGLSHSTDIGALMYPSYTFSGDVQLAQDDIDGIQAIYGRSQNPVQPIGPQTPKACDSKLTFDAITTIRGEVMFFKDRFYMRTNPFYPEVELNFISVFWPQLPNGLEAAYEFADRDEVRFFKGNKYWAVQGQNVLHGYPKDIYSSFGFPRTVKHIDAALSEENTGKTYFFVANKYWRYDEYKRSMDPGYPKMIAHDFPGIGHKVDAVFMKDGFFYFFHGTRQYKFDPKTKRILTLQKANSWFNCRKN

MMP-13 = MMP-13 (Homo sapiens, UniProt P45452); assay: MMP-13 inhibition (thiopeptide or fluorescent peptide substrate); type: biochemical; conditions: read-out: MMP-13 IC50

Sequence of TNF-α converting enzyme (TACE) (P78536 215-824, species assumed): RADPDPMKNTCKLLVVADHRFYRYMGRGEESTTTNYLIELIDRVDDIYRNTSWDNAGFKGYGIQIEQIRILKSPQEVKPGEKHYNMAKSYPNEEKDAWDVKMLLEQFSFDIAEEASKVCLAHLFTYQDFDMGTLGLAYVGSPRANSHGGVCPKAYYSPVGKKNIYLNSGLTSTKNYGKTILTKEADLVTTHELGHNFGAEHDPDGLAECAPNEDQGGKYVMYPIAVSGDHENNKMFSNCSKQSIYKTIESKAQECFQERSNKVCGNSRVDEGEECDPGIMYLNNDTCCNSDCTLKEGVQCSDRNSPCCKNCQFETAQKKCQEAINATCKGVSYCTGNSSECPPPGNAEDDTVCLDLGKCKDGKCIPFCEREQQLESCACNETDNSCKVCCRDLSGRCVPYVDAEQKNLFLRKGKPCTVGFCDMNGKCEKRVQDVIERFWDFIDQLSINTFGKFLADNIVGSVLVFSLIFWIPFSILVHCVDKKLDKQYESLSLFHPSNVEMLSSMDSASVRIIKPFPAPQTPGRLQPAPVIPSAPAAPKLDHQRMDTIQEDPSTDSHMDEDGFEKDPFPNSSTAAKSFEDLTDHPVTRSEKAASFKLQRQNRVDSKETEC
Sequence of MMP-9 (P14780 94-707): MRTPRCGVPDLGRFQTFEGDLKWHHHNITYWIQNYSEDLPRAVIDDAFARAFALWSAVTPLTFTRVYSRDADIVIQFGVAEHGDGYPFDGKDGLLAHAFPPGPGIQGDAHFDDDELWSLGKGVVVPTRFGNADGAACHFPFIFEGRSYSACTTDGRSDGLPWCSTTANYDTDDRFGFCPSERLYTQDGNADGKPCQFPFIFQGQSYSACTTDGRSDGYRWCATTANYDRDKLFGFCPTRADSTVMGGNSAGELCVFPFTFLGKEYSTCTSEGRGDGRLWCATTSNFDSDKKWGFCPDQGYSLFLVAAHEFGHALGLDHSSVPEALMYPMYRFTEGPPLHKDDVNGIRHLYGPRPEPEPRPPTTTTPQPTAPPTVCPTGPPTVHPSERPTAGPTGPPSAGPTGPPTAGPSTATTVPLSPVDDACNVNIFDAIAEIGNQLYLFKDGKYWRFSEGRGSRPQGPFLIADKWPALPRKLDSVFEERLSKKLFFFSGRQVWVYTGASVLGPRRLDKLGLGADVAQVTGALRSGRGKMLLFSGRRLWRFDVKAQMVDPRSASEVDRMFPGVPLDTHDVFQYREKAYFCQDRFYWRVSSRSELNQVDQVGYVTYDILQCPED

| Structure (SMILES) | IC50 (MMP-9) [nM] | IC50 [1] [nM] | melting point [°C] | IC50 (MMP-1) [nM] | IC50 (MMP-13) [nM] | inhibition at 3 µM (THP-1 cells) [%] |
| --- | --- | --- | --- | --- | --- | --- |
| CC#CCOc1ccc(S(=O)(=O)N[C@@H](C(=O)NO)C2CCC(O)CC2)cc1 (stereo partly drawn) [Example 129, (2R)-{[4-(2-Butynyloxy)phenyl]sulfonyl}amino-N-hydroxy-2-(4-hydroxycyclohexyl)ethanamide] | 192 | 7.4 | 180 to 182 | 1040 | 28 | 92 |
| CC#CCOc1ccc(S(=O)(=O)NC(C(=O)NO)C(C)(C)SCCN2CCOCC2)cc1 (stereo not drawn) [Example 164] | 204 | 64 | 72 | 1570 | 20 | 70 |
| CC#CCOc1ccc(S(=O)(=O)NC2(C(=O)NO)CCCC2)cc1 [Example 139, 1-({[4-(2-Butynyloxy)phenyl]sulfonyl}amino)-N-hydroxycyclopentanecarboxamide] | 3700 | 37 | 66 to 68 | > 10000 | 1270 | 26 |
| CC#CCOc1ccc(S(=O)(=O)NC2(C(=O)NO)CCCCC2)cc1 [Example 138, 1-({[4-(2-Butynyloxy)phenyl]sulfonyl}amino)-N-hydroxycyclohexanecarboxamide] | 2170 | 27 | 82 to 84 | 5170 | 619 | 19 |

Continued, in another order:

| IC50 (MMP-9) [nM] | IC50 [1] [nM] | melting point [°C] | IC50 (MMP-1) [nM] | IC50 (MMP-13) [nM] | Structure (SMILES) | inhibition at 3 µM (THP-1 cells) [%] |
| --- | --- | --- | --- | --- | --- | --- |
| 424 | 12 | 46 to 50 | 852 | 42 | CC#CCOc1ccc(S(=O)(=O)NC(C(=O)NO)C(C)(C)SCC)cc1 (stereo not drawn) [Example 159, 2-[(4-but-2-ynyloxy-Benenesulfonyl)-amino]-N-hydroxy-3-methyl-3-ethylsulfanyl-butyramide] | 76 |
| 1010 | 15 | 152 to 155 | 1400 | 65 | CC#CCOc1ccc(S(=O)(=O)NC(C(=O)NO)C(C)(C)SCCC)cc1 (stereo not drawn) [Example 160, 2-[(4-but-2-ynyloxy-Benenesulfonyl)-amino]-N-hydroxy-3-methyl-3-propylsulfanyl-butyramide] | 67 |
| 306 | 18 | 112 to 115 | 1720 | 47 | CC#CCOc1ccc(S(=O)(=O)NC(C(=O)NO)C(C)(C)SCc2nccn2C)cc1 (stereo not drawn) [Example 163] | 77 |
| 138 | 19 | 92 to 95 | 310 | 8.3 | CC#CCOc1ccc(S(=O)(=O)NC(C(=O)NO)C(C)(C)SCc2ccccc2)cc1 (stereo not drawn) [Example 162] | 49 |
| 164 | 25 | 128 to 132 | 1020 | 30 | CC#CCOc1ccc(S(=O)(=O)N[C@@H](C(=O)NO)C(C)(C)SC)cc1 [Example 158] | 78 |
| 587 | 69 | 47 to 52 | 2430 | 177 | CC#CCOc1ccc(S(=O)(=O)NC(C(=O)NO)C(C)(C)SCC(=O)OC(C)(C)C)cc1 (stereo not drawn) [Example 165] | 84 |
